According to article PMC8728441, “Biosynthesis of the redox cofactor mycofactocin is controlled by the transcriptional regulator MftR and induced by long-chain acyl-CoA species” (The Journal of Biological Chemistry, 2021):

What was measured:
MftR (WT) = MftR (WT) (Mycolicibacterium smegmatis, UniProt A0QSB5); assay: ITC binding of acyl-CoAs to MftR; parameters: species or system Mycobacterium smegmatis mc^2155
Protocol: (§1) ITC was performed using TA Nano ITC. MftR was loaded in the sample cell at the concentration of 16 and 250 μM acyl-CoAs (C12–C18) loaded in the syringe. To minimize the effect of buffer mismatch, the stock concentration of acyl-CoAs was prepared using ITC buffer (50 mM Hepes, 50 mM NaCl, and pH 7.5), and the pH was adjusted to within 0.05 units. In addition, MftR was buffer exchanged into ITC buffer using a PD-10 column (GE Life Sciences). The volume of the titrant added at each injection into the sample cell was 2.22 μl. The time interval between the successive injections was 180 s. The temperature of the cell was kept at 25 °C. The data obtained were fit by independent one-site model using NanoAnalyze Data Analysis, version 3.8.0, that was provided with the instrument.

MftR F96A = biological target: T1, MftR F96A (Mycolicibacterium smegmatis, UniProt A0QSB5, F96A); assay: ITC binding of oleoyl-CoA to MftR variant; parameters: species or system Mycobacterium smegmatis mc^2155
T1 sequence (A0QSB5 1-200 F96A): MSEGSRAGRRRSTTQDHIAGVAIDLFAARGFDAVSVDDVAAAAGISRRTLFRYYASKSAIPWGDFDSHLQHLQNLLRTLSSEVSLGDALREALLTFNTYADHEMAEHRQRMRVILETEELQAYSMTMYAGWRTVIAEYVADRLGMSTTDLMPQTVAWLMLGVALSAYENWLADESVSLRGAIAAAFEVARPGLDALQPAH
From the text: (§2) Next, we examined which amino acid residues contribute to the interaction between MftR and oleoyl-CoA. The crystal structure of Msmeg MftR is currently unavailable; however, an unpublished structure of Rhodococcus jostii RHA1 MftR has been deposited in the Protein Data Bank (PDB) (PDB ID: 2RAE, 54% identical, Fig. S3). Using this structure, we employed SwissDock to model oleoyl-CoA bound to MftR (Fig. 5) ([41], [42]). From the docked structure, we identified eight conserved residues on MftR that were expected to create the acyl-binding pocket or bind CoA through electrostatic interactions. Following single amino acid replacements of the residues, we measured the Kd values of the mutant proteins to oleoyl-CoA using ITC. For the putative acyl-binding pocket residues Phe65, Phe96, and Ile114, mutations to alanine led to no or modest change to the Kd for oleoyl-CoA (Table 1). […] Conversely, when His68 was mutated to alanine, binding of oleoyl-CoA by the protein was undetectable. To validate this observation, competitive EMSAs were carried out using the H68A mutant. […] Thus, it is highly likely that His68 is an important residue for oleoyl-CoA binding. To evaluate residues that were expected to interact with CoA, Gln15, Asp16, Ser67, and Asp66 were targeted. Of these, mutants of Asp16 and Ser67 had the greatest effect (Table 1). […] This latter observation was validated using competitive EMSAs (Fig. S4B). […] Taken together, it is likely that Ser67 and Asp16 participate in oleoyl-CoA binding, likely through electrostatic interactions.
(§3) Mutant strand synthesis reactions were performed according to the Agilent QuikChange site-directed mutagenesis protocol. The mftR_pET28a plasmid was used as a template for site-directed mutagenesis studies. Sequence-verified plasmids were transformed into E. coli BL21(DE3) pLysS cells for protein production and purified using the same protocol as wildtype MftR.
as §1

MftR I114A = biological target: T2, MftR I114A (Mycolicibacterium smegmatis, UniProt A0QSB5, I114A); assay: ITC binding of oleoyl-CoA to MftR variant; parameters: species or system Mycobacterium smegmatis mc^2155
T2 sequence (A0QSB5 1-200 I114A): T1 sequence (A0QSB5 1-200 F96A)
From the text: as §2, §3, §1

MftR S67W = biological target: T3, MftR S67W (Mycolicibacterium smegmatis, UniProt A0QSB5, S67W); assay: ITC binding of oleoyl-CoA to MftR variant; parameters: species or system Mycobacterium smegmatis mc^2155
T3 sequence (A0QSB5 1-200 S67W): T1 sequence (A0QSB5 1-200 F96A)
From the text: as §2, §3, §1

MftR F65A = biological target: T4, MftR F65A (Mycolicibacterium smegmatis, UniProt A0QSB5, F65A); assay: ITC binding of oleoyl-CoA to MftR variant; parameters: species or system Mycobacterium smegmatis mc^2155
T4 sequence (A0QSB5 1-200 F65A): T1 sequence (A0QSB5 1-200 F96A)
From the text: as §2, §3, §1

MftR Q15A = biological target: T5, MftR Q15A (Mycolicibacterium smegmatis, UniProt A0QSB5, Q15A); assay: ITC binding of oleoyl-CoA to MftR variant; parameters: species or system Mycobacterium smegmatis mc^2155
T5 sequence (A0QSB5 1-200 Q15A): T1 sequence (A0QSB5 1-200 F96A)
From the text: as §2, §3, §1

MftR D16W = biological target: T6, MftR D16W (Mycolicibacterium smegmatis, UniProt A0QSB5, D16W); assay: ITC binding of oleoyl-CoA to MftR variant; parameters: species or system Mycobacterium smegmatis mc^2155
T6 sequence (A0QSB5 1-200 D16W): T1 sequence (A0QSB5 1-200 F96A)
From the text: as §2, §3, §1

MftR D16R = assay: ITC binding of oleoyl-CoA to MftR variant; parameters: species or system Mycobacterium smegmatis mc^2155; conditions: ND = not detected
From the text: as §2, §3, §1

MftR S67A = biological target: T7, MftR S67A (Mycolicibacterium smegmatis, UniProt A0QSB5, S67A); assay: ITC binding of oleoyl-CoA to MftR variant; parameters: species or system Mycobacterium smegmatis mc^2155
T7 sequence (A0QSB5 1-200 S67A): T1 sequence (A0QSB5 1-200 F96A)
From the text: as §2, §3, §1

MftR D66A = biological target: T8, MftR D66A (Mycolicibacterium smegmatis, UniProt A0QSB5, D66A); assay: ITC binding of oleoyl-CoA to MftR variant; parameters: species or system Mycobacterium smegmatis mc^2155
T8 sequence (A0QSB5 1-200 D66A): T1 sequence (A0QSB5 1-200 F96A)
From the text: as §2, §3, §1

MftR M127A = MftR M127A (Mycolicibacterium smegmatis, UniProt A0QSB5, M127A); assay: ITC binding of oleoyl-CoA to MftR variant; parameters: species or system Mycobacterium smegmatis mc^2155
Protocol: (§4) Finally, we examined the effects of mutations at the interface of the DNA-binding and effector-binding domains. Here, residues Leu120 and Met127 were mutated to arginine and alanine, respectively, and the Kds for oleoyl-CoA and Omft were measured as described previously.
as §3
as §1, with “The data obtained were fit by independent one-site model using NanoAnalyze Data Analysis, version 3.8.0, that was provided with the instrument.” left out

MftR L120R = MftR L120R (Mycolicibacterium smegmatis, UniProt A0QSB5, L120R); assay: ITC binding of oleoyl-CoA to MftR variant; parameters: species or system Mycobacterium smegmatis mc^2155
Protocol: as §4, §3
as §1, with “The data obtained were fit by independent one-site model using NanoAnalyze Data Analysis, version 3.8.0, that was provided with the instrument.” left out

MftR H68A–Omft complex = assay: Competitive EMSA with H68A mutant and oleoyl-CoA; type: binding, Mycobacterium smegmatis mc^2155; conditions: up to 100 μM oleoyl-CoA
From the text: Next, we examined which amino acid residues contribute to the interaction between MftR and oleoyl-CoA. The crystal structure of Msmeg MftR is currently unavailable; however, an unpublished structure of Rhodococcus jostii RHA1 MftR has been deposited in the Protein Data Bank (PDB) (PDB ID: 2RAE, 54% identical, Fig. S3). Using this structure, we employed SwissDock to model oleoyl-CoA bound to MftR (Fig. 5) ([41], [42]). From the docked structure, we identified eight conserved residues on MftR that were expected to create the acyl-binding pocket or bind CoA through electrostatic interactions. Following single amino acid replacements of the residues, we measured the Kd values of the mutant proteins to oleoyl-CoA using ITC. For the putative acyl-binding pocket residues Phe65, Phe96, and Ile114, mutations to alanine led to no or modest change to the Kd for oleoyl-CoA (Table 1). […] Conversely, when His68 was mutated to alanine, binding of oleoyl-CoA by the protein was undetectable. To validate this observation, competitive EMSAs were carried out using the H68A mutant. […] Thus, it is highly likely that His68 is an important residue for oleoyl-CoA binding. To evaluate residues that were expected to interact with CoA, Gln15, Asp16, Ser67, and Asp66 were targeted. Of these, mutants of Asp16 and Ser67 had the greatest effect (Table 1). […]

In the case of `CCCCCCCC/C=C\CCCCCCCC(=O)SCCNC(=O)CCNC(=O)[C@H](O)C(C)(C)COP(=O)(O)OP(=O)(O)OC[C@H]1O[C@@H](n2cnc3c(N)ncnc32)[C@H](O)[C@@H]1OP(=O)(O)O` [oleoyl-CoA], the Kd (MftR (WT)) is reported as 1400 ± 100 nM, the “number of binding sites” value (MftR (WT); ITC, WT MftR, one-site model) is reported as roughly 0.6 sites per monomer MftR and the Kd (MftR F96A) is reported as 1400 ± 100 nM. It also gave a Kd (MftR I114A) of 2400 ± 100 nM, a Kd (MftR S67W) of 8300 ± 200 nM and a Kd (MftR F65A) of 1900 ± 100 nM. For the same compound, the Kd (MftR Q15A) was 2000 ± 100 nM, the Kd (MftR D16W) was 4800 ± 200 nM and the Kd (MftR D16R) was “no longer detectable”. For the same compound, the Kd (MftR S67A) was 5400 ± 200 nM, the Kd (MftR D66A) was 1600 ± 100 nM and the Kd (MftR M127A) was 4800 ± 100 nM. The Kd (MftR L120R) was 6200 ± 200 nM and the “release of Omft from H68A mutant” value (MftR H68A–Omft complex) was “remained bound to Omft”.
